target: T1, Polyunsaturated fatty acid 5-lipoxygenase (Homo sapiens, UniProt P09917); assay: In vitro inhibition of human recombinant 5-lipoxygenase enzyme
T1 sequence (P09917 whole entry): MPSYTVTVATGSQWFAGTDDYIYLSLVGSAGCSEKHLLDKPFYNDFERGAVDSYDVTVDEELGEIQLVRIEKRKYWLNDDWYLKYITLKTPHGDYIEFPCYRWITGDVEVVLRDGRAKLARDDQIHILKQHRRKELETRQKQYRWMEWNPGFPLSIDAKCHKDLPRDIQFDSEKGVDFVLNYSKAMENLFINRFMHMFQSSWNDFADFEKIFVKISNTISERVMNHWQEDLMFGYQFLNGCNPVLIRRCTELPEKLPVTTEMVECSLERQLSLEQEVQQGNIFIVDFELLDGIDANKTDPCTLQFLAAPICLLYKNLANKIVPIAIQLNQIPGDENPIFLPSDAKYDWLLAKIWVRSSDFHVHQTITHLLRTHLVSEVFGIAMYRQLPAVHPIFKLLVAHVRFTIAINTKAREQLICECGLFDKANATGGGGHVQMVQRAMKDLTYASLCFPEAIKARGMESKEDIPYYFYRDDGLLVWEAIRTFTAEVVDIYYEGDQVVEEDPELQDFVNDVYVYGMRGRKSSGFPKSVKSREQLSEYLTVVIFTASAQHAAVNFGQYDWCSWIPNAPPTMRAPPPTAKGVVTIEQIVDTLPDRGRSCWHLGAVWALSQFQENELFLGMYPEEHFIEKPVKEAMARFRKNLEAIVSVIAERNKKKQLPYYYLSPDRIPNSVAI

IC50	Compound
500 nM	O=C1OCc2c1cc1cc3c(cc1c2-c1ccc2c(c1)OCO2)OCO3

target: T1, Polyunsaturated fatty acid 5-lipoxygenase; assay: In vitro inhibition of LTB4 biosynthesis by human leukocytes; format: functional

Compound	IC50
O=C1OCc2c1cc1ccccc1c2-c1ccc2c(c1)OCO2	380 nM
O=C1OC(=O)c2c1cc1cc3c(cc1c2-c1ccc2c(c1)OCO2)OCO3	660 nM
COc1cc2cc3c(c(-c4ccc5c(c4)OCO5)c2cc1OC)COC3=O [RETROJUSTICIDIN B]	760 nM
OCc1cc2cc3c(cc2c(-c2ccc4c(c2)OCO4)c1CO)OCO3	2200 nM
O=C1NCc2c1cc1cc3c(cc1c2-c1ccc2c(c1)OCO2)OCO3	4200 nM
O=C1OCc2c1cc1sccc1c2-c1ccccc1	450 nM
COc1ccc(-c2c3c(cc4cc5c(cc24)OCO5)C(=O)OC3)cc1OC	> 5000 nM
O=C1OCc2cc3cc4c(cc3c(-c3ccc5c(c3)OCO5)c21)OCO4 [TAIWANIN C]	250 nM
O=C1OCc2c1cc1ccccc1c2-c1ccccc1	250 nM
COc1ccc2cc3c(c(-c4ccccc4)c2c1)COC3=O	670 nM
COc1ccc(-c2c3c(cc4ccccc24)C(=O)OC3)cc1	1400 nM
O=C1OCc2c1cc1ccccc1c2-c1ccncc1	> 4000 nM
O=C1OCc2c1cc1ccncc1c2-c1ccccc1	3800 nM
c1cc2c(cc1C1c3cocc3Cc3cc4c(cc31)OCO4)OCO2 (stereo unspecified)	420 nM

The remaining compounds from weak to strong by IC50, led by results:

IC50	Compound
250 nM	Cc1cc2cc3c(cc2c(-c2ccc4c(c2)OCO4)c1C)OCO3
230 nM	c1cc2c(cc1-c1c3c(cc4cc5c(cc14)OCO5)COC3)OCO2
180 nM	COc1ccc2c(-c3ccccc3)c3c(cc2c1)C(=O)OC3
160 nM	O=C1OCc2c1cc1cc3c(cc1c2-c1ccccc1)OCO3
100 nM	O=C1OCc2c1cc1cc(OCc3ccccc3)ccc1c2-c1ccccc1
88 nM	O=C1OCc2c1cc1cc(OCc3ccc4ccccc4n3)ccc1c2-c1ccccc1
70 nM	O=C1OCc2c1cc1cc3c(cc1c2-c1ccc2c(c1)OCO2)OCO3
42 nM	COc1cccc(-c2c3c(cc4ccccc24)C(=O)OC3)c1
22 nM	O=C1OCc2c1cc1cc(OCc3ccc(-c4ccccc4)cn3)ccc1c2-c1ccccc1

target: T1, Polyunsaturated fatty acid 5-lipoxygenase; assay: In vitro inhibition of human recombinant lipoxygenase enzyme

IC50	Compound
3000 nM	O=C1OCc2c1cc1cc(OCc3ccccc3)ccc1c2-c1ccccc1

target: T1, Polyunsaturated fatty acid 5-lipoxygenase; assay: In vitro inhibition of human recombinant lipoxygenase enzyme; No inhibition

IC50	Compound
Not Active	O=C1OCc2c1cc1cc(OCc3ccc(-c4ccccc4)cn3)ccc1c2-c1ccccc1

— ChEMBL document CHEMBL1127123, “Justicidin E: A new leukotriene biosynthesis inhibitor” (Bioorg Med Chem Lett, 1993)
